Measured values reported in patent US8946266B2, “Substituted triazole and imidazole derivatives as gamma secretase modulators” (Janssen Pharmaceuticals, Inc., priority 2009, dated 2015).
Read-outs that look alike come from different tables or passages of the source.

What was measured:
Aβ42 = assay: γ-secretase-modulating activity, Method 2: Aβ42 Alphalisa in supernatant of SKNBE2 cells carrying APP 695-wild type (Table 3b); assay type: cell-based; conditions: overnight
Procedure: (§1) Screening was carried out using SKNBE2 cells carrying the APP 695-wild type, grown in Dulbecco's Modified Eagle's Medium/Nutrient mixture F-12 (DMEM/NUT-mix F-12) (HAM) provided by Invitrogen (cat no. 10371-029) containing 5% Serum/Fe supplemented with 1% non-essential amino acids, 1-glutamine 2 mM, Hepes 15 mM, penicillin 50 U/ml (units/ml) en streptomycin 50 μg/ml. Cells were grown to near confluency.
(§2) The screening was performed using a modification of the assay as described in Citron et al (1997) Nature Medicine 3: 67. Briefly, cells were plated in a 384-well plate at 10^4 cells/well in Ultraculture (Lonza, BE12-725F) supplemented with 1% glutamine (Invitrogen, 25030-024), 1% non-essential amino acid (NEAA), penicillin 50 U/ml en streptomycin 50 μg/ml in the presence of test compound at different test concentrations. The cell/compound mixture was incubated overnight at 37° C., 5% CO2. The next day the media were assayed by two sandwich immuno-assays, for Aβ42 and Aβtotal.
(§3) Aβtotal and Aβ42 concentrations were quantified in the cell supernatant using the Aphalisa technology (Perkin Elmer). Alphalisa is a sandwich assay using biotinylated antibody attached to streptavidin coated donorbeads and antibody conjugated to acceptor beads. In the presence of antigen, the beads come into close proximity. The excitation of the donor beads provokes the release of singlet oxygen molecules that trigger a cascade of energy transfer in the acceptor beads, resulting in light emission. To quantify the amount of Aβ42 in the cell supernatant, monoclonal antibody specific to the C-terminus of Aβ42 (JRF/cAβ42/26) was coupled to the receptor beads and biotinylated antibody specific to the N-terminus of Aβ (JRF/AβN/25) was used to react with the donor beads. To quantify the amount of Aβ total in the cell supernatant, monoclonal antibody specific to the N-terminus of Aβ (JRF/AβN/25) was coupled to the receptor beads and biotinylated antibody specific to the mid region of Aβ (biotinylated 4G8) was used to react with the donor beads.
To obtain the values reported in Table 3b, the data were calculated as percentage of the maximum amount of amyloid Beta 42 measured in the absence of the test compound.
(§4) The sigmoidal dose response curves were analyzed using non-linear regression analysis with percentage of the control plotted against the log concentration of the compound. A 4-parameter equation was used to determine the IC50.
(§5) The IC50 values are shown in Table 3b (Aβtot means Aβtotal).

Aβtotal = assay: γ-secretase-modulating activity, Method 2: Aβtotal Alphalisa in supernatant of SKNBE2 cells carrying APP 695-wild type (Table 3b); assay type: cell-based; conditions: overnight, read-out: IC50 Aβtot
Procedure: as §1, §2, §3, §4, §5

| Compound | IC50 (Aβ42) | IC50 (Aβtotal) | IC50 (Aβ42; Homo sapiens) | IC50 (Aβtotal; Homo sapiens) |
| --- | --- | --- | --- | --- |
| COc1cccc(-c2nc(-c3ccc(-n4cnc(C)c4)c(OC)c3)nn2C)c1 [Compound 36] | 0.575 µM | > 10 µM |  |  |
| COc1cc(-c2nc(Nc3ccc(C(F)(F)F)cc3F)n(C)n2)ccc1-n1cnc(C)c1 [Compound 134] | 0.11 µM | > 10 µM |  |  |
| COc1cc(-c2nc(-c3ccccc3C(F)(F)F)nn2C)ccc1-n1cnc(C)c1 [Compound 54] | 4.17 µM | > 10 µM |  |  |
| COc1cc(-c2nc3n(n2)CCCC3(O)c2ccc(F)cc2C)ccc1-n1cnc(C)c1 (stereo not shown) [Compound 269] |  |  | 0.148 µM | > 10 µM |
| COc1cc(-c2nc(Nc3c(F)ccc(OC)c3F)n(C)n2)ccc1-n1cnc(C)c1 [Compound 196] | 0.129 µM | > 10 µM |  |  |
| COc1cc(-c2nc(NC3CCCC(C(F)(F)F)C3)n(C)n2)ccc1-n1cnc(C)c1 (stereo not shown) [Compound 95] | 0.912 µM | > 10 µM |  |  |
| COc1cc(-c2n[nH]c(-c3cccc(C(F)(F)F)c3)n2)ccc1-n1cnc(C)c1 [Compound 6] |  |  | 0.309 µM | > 10 µM |
| COc1cc(-c2nc(-c3ccc(F)cc3)nn2C)ccc1-n1cnc(C)c1 [Compound 52] | 5.75 µM | > 10 µM |  |  |
| COc1cc(-c2nc(Nc3cccc(C(F)(F)F)c3)n(C(C)C)n2)ccc1-n1cnc(C)c1 [Compound 133] | 0.031 µM | 2.34 µM |  |  |
| COc1cc(-c2nc(Nc3cccn(C)c3=O)n(C)n2)ccc1-n1cnc(C)c1 [Compound 243] | 8.32 µM | > 10 µM |  |  |
| COc1cc(-c2nc(N3CCCOc4ccccc43)n(C)n2)ccc1-n1cnc(C)c1 [Compound 327] | 1.18 µM | > 10 µM |  |  |
| COc1cc(-c2nc(Nc3cccc(C#N)c3F)n(C)n2)ccc1-n1cnc(C)c1 [Compound 229] | 0.295 µM | > 10 µM |  |  |
| COc1cc(-c2nc3n(n2)CCCC3c2c(F)cc(F)cc2F)ccc1-n1cnc(C)c1 (stereo not shown) [Compound 312] | 0.123 µM | > 10 µM |  |  |
| COc1cc(-c2nc(Nc3cc(OC4CCOC4)ccc3F)n(C)n2)ccc1-n1cnc(C)c1 (racemic) [Compound 358] | 0.062 µM |  |  |  |
| COc1cc(-c2nc(Nc3ccc(C)cc3F)n(C)n2)ccc1-n1cnc(C)c1 [Compound 352] | 0.06 µM |  |  |  |
| COc1cc(-c2nc(Nc3cc(C(C)(C)C)ccc3F)n(C)n2)ccc1-n1cnc(C)c1 [Compound 357] | 0.007 µM |  |  |  |
| COc1cc(-c2nc3n(n2)CCC(C)C3c2ccc(F)cc2)ccc1-n1cnc(C)c1 (stereo not shown) [Compound 369] | 0.123 µM |  |  |  |
| COc1nc(-c2nc3n(n2)CCC(C)C3c2ccc(F)cc2)ccc1-n1cnc(C)c1 (stereo not shown) [Compound 368] | 0.066 µM |  |  |  |
| COc1cc(-c2nc3n(n2)CCOC3c2cc(C(F)(F)F)ccc2C)ccc1-n1cnc(C)c1 (stereo not shown) [Compound 371] | 0.04 µM |  |  |  |
| COc1cc(-c2nc(C3CCc4ccccc4N3)n(C)n2)ccc1-n1cnc(C)c1 (stereo not shown) [Compound 365] |  |  | 0.447 µM |  |
| COc1cc(-c2nc(Nc3cc(OCC4CC4)ccc3F)n(C)n2)ccc1-n1cnc(C)c1 [Compound 356] | 0.02 µM |  |  |  |
| COc1nc(-c2nc3n(n2)CCC[C@@H]3c2ccc(F)cc2C)ccc1-n1cnc(C)c1 [Compound 360] | 0.24 µM |  |  |  |
| COc1ccc(F)c(C2CCCn3nc(-c4ccc(-n5cnc(C)c5)c(OC)c4)nc32)c1 (stereo not shown) [Compound 364] | 0.083 µM |  |  |  |
| COc1cc(-c2nc(C3CCc4ccccc4N3C)n(C)n2)ccc1-n1cnc(C)c1 (stereo not shown) [Compound 366] |  |  | 0.513 µM |  |
| COc1cc(-c2nc(Nc3cc(C)ccc3C(F)(F)F)n(C)n2)ccc1-n1cnc(C)c1 [Compound 351] | 0.028 µM |  |  |  |
| COc1nc(-c2nc3n(n2)CCOC3c2cc(OC(F)(F)F)ccc2F)ccc1-n1cnc(C)c1 (stereo not shown) [Compound 374] | 0.062 µM |  |  |  |
| COc1cc(-c2nc(Nc3ccccc3OC(C)C)n(C)n2)ccc1-n1cnc(C)c1 [Compound 367] | 0.078 µM |  |  |  |
| COCCOc1ccc(F)c(Nc2nc(-c3ccc(-n4cnc(C)c4)c(OC)c3)nn2C)c1 [Compound 355] | 0.135 µM |  |  |  |
| CCOc1ccc(F)c(Nc2nc(-c3ccc(-n4cnc(C)c4)c(OC)c3)nn2C)c1 [Compound 354] | 0.022 µM |  |  |  |
| COc1cc(-c2nc3n(n2)C(C)CCC3c2ccc(F)cc2C)ccc1-n1cnc(C)c1 (stereo not shown) [Compound 363] | 0.407 µM |  |  |  |
